According to PubChem BioAssay AID1259407 (Chemical Carcinogenesis Research Information System (CCRIS), 2018):
The source made the active and inactive calls. How the calls were made is not given here.

Tested on: CCRIS mutagenicity, Ames/micronucleus/aberration tests
Experiment: CCRIS mutagenicity studies
[1] = Test System: AMES SALMONELLA TYPHIMURIUM, Strain/Indicator: TA98, Metabolic Activation: HAMSTER, LIVER, S-9, AROCLOR 1254 (10%), Method: PREINCUBATION
[2] = Test System: AMES SALMONELLA TYPHIMURIUM, Strain/Indicator: TA98, Metabolic Activation: NONE, Method: PREINCUBATION
[3] = Test System: AMES SALMONELLA TYPHIMURIUM, Strain/Indicator: TA98, Metabolic Activation: RAT, LIVER, S-9, AROCLOR 1254 (10%), Method: PREINCUBATION
[4] = Test System: AMES SALMONELLA TYPHIMURIUM, Strain/Indicator: TA100, Metabolic Activation: HAMSTER, LIVER, S-9, AROCLOR 1254 (10%), Method: PREINCUBATION
[5] = Test System: AMES SALMONELLA TYPHIMURIUM, Strain/Indicator: TA100, Metabolic Activation: NONE, Method: PREINCUBATION
[6] = Test System: AMES SALMONELLA TYPHIMURIUM, Strain/Indicator: TA100, Metabolic Activation: RAT, LIVER, S-9, AROCLOR 1254 (10%), Method: PREINCUBATION
[7] = Test System: AMES SALMONELLA TYPHIMURIUM, Strain/Indicator: TA1535, Metabolic Activation: HAMSTER, LIVER, S-9, AROCLOR 1254 (10%), Method: PREINCUBATION
[8] = Test System: AMES SALMONELLA TYPHIMURIUM, Strain/Indicator: TA1535, Metabolic Activation: NONE, Method: PREINCUBATION
[9] = Test System: AMES SALMONELLA TYPHIMURIUM, Strain/Indicator: TA1535, Metabolic Activation: RAT, LIVER, S-9, AROCLOR 1254 (10%), Method: PREINCUBATION
[10] = Test System: AMES SALMONELLA TYPHIMURIUM, Strain/Indicator: TA1537, Metabolic Activation: HAMSTER, LIVER, S-9, AROCLOR 1254 (10%), Method: PREINCUBATION
[11] = Test System: AMES SALMONELLA TYPHIMURIUM, Strain/Indicator: TA1537, Metabolic Activation: NONE, Method: PREINCUBATION
[12] = Test System: AMES SALMONELLA TYPHIMURIUM, Strain/Indicator: TA1537, Metabolic Activation: RAT, LIVER, S-9, AROCLOR 1254 (10%), Method: PREINCUBATION

Row | SMILES | mutagenic call [1] | mutagenic call [2] | mutagenic call [3] | mutagenic call [4] | mutagenic call [5] | mutagenic call [6] | mutagenic call [7] | mutagenic call [8] | mutagenic call [9] | mutagenic call [10] | mutagenic call [11] | mutagenic call [12] | other results
1 | O=C1CCCO1 | inactive; negative | inactive; negative | inactive; negative | inactive; negative | inactive; negative | inactive; negative | inactive; negative | inactive; negative | inactive; negative | inactive; negative | inactive; negative | inactive; negative | mutagenic call (End Point: IN VITRO CHROMOSOMAL ABERRATIONS, Test System: CHO CELLS, Metabolic Activation: NONE): inactive; negative; mutagenic call (End Point: IN VITRO CHROMOSOMAL ABERRATIONS, Test System: CHO CELLS, Metabolic Activation: RAT, LIVER, S-9, AROCLOR 1254): active; positive; mutagenic call (Test System: AMES SALMONELLA TYPHIMURIUM, Strain/Indicator: TA98, Metabolic Activation: RAT LIVER S-9, PHENOBARBITAL AND BETA-NAPHTHOFLAVONE, Method: PREINCUBATION): inactive; negative; mutagenic call (Test System: AMES SALMONELLA TYPHIMURIUM, Strain/Indicator: TA98, Metabolic Activation: RAT, LIVER, S-9, AROCLOR 1254, Method: PREINCUBATION): inactive; negative; mutagenic call (Test System: AMES SALMONELLA TYPHIMURIUM, Strain/Indicator: TA100, Metabolic Activation: RAT LIVER S-9, PHENOBARBITAL AND BETA-NAPHTHOFLAVONE, Method: PREINCUBATION): inactive; negative; mutagenic call (Test System: AMES SALMONELLA TYPHIMURIUM, Strain/Indicator: TA100, Metabolic Activation: RAT, LIVER, S-9, AROCLOR 1254, Method: PREINCUBATION): inactive; negative; mutagenic call (Test System: AMES SALMONELLA TYPHIMURIUM, Strain/Indicator: TA102, Metabolic Activation: NONE, Method: PREINCUBATION): inactive; negative; mutagenic call (Test System: AMES SALMONELLA TYPHIMURIUM, Strain/Indicator: TA102, Metabolic Activation: RAT LIVER S-9, PHENOBARBITAL AND BETA-NAPHTHOFLAVONE, Method: PREINCUBATION): inactive; negative; mutagenic call (Test System: AMES SALMONELLA TYPHIMURIUM, Strain/Indicator: TA102, Metabolic Activation: RAT, LIVER, S-9, AROCLOR 1254, Method: PREINCUBATION): inactive; negative; mutagenic call (Test System: AMES SALMONELLA TYPHIMURIUM, Strain/Indicator: TA104, Metabolic Activation: NONE, Method: PREINCUBATION): inactive; negative; mutagenic call (Test System: AMES SALMONELLA TYPHIMURIUM, Strain/Indicator: TA104, Metabolic Activation: RAT LIVER S-9, PHENOBARBITAL AND BETA-NAPHTHOFLAVONE, Method: PREINCUBATION): inactive; negative; mutagenic call (Test System: AMES SALMONELLA TYPHIMURIUM, Strain/Indicator: TA1535, Metabolic Activation: RAT LIVER S-9, PHENOBARBITAL AND BETA-NAPHTHOFLAVONE, Method: PREINCUBATION): inactive; negative; mutagenic call (Test System: AMES SALMONELLA TYPHIMURIUM, Strain/Indicator: TA1537, Metabolic Activation: RAT LIVER S-9, PHENOBARBITAL AND BETA-NAPHTHOFLAVONE, Method: PREINCUBATION): inactive; negative; mutagenic call (Test System: E.COLI, Strain/Indicator: WP2UVRA, Metabolic Activation: NONE, Method: PREINCUBATION): inactive; negative; mutagenic call (Test System: E.COLI, Strain/Indicator: WP2UVRA, Metabolic Activation: RAT LIVER S-9, PHENOBARBITAL AND BETA-NAPHTHOFLAVONE, Method: PREINCUBATION): inactive; negative; mutagenic call (Test System: E.COLI, Strain/Indicator: WP2UVRA\PKM101, Metabolic Activation: NONE, Method: PREINCUBATION): inactive; negative; mutagenic call (Test System: E.COLI, Strain/Indicator: WP2UVRA\PKM101, Metabolic Activation: RAT LIVER S-9, PHENOBARBITAL AND BETA-NAPHTHOFLAVONE, Method: PREINCUBATION): inactive; negative
2 | CCCCCNCCCCC | inactive; negative | inactive; negative | inactive; negative | inactive; negative | inactive; negative | inactive; negative | inactive; negative | inactive; negative | inactive; negative | inactive; negative | inactive; negative | inactive; negative | 
